Measured values reported in ChEMBL document CHEMBL3739292, “Synthesis and Biological Evaluation of Polar Functionalities Containing Nitrodihydroimidazooxazoles as Anti-TB Agents” (ACS Med Chem Lett, 2015).
Values after ≈ are worked out from the molar mass of the structure shown.

Assays:
[1] = tested on: Mycobacterium tuberculosis; experiment: Antimicrobial activity against multidrug-resistant Mycobacterium tuberculosis by resazurin microtiter assay; type: functional
[2] = tested on: Mycobacterium tuberculosis; experiment: Antimicrobial activity against rifamycin-resistant Mycobacterium tuberculosis by resazurin microtiter assay; type: functional

Structure (SMILES) | MIC [1] [µg/mL] | MIC [2] [µg/mL]
C[C@]1(COc2ccc(N3CCC(Oc4ccc(OC(F)(F)F)cc4)CC3)cc2)Cn2cc([N+](=O)[O-])nc2O1 | 0.02 (≈ 0.0374 µM) | 0.005 (≈ 0.00935 µM)
CCOc1ccc(NC(=O)Nc2ccc(OC[C@@]3(C)Cn4cc([N+](=O)[O-])nc4O3)cc2)cc1 | > 8 | 1 (≈ 2.21 µM)
C[C@]1(COc2ccc(NC(=O)Nc3ccc(Cl)cc3)cc2)Cn2cc([N+](=O)[O-])nc2O1 | > 8 | 0.67 (≈ 1.51 µM)
COc1ccc(NC(=S)Nc2ccc(OC[C@@]3(C)Cn4cc([N+](=O)[O-])nc4O3)cc2)cc1 | > 8 | 2 (≈ 4.39 µM)
C[C@]1(COc2ccc(S(=O)(=O)N3CCOCC3)cc2)Cn2cc([N+](=O)[O-])nc2O1 | 2 (≈ 4.71 µM) | 1 (≈ 2.36 µM)
C[C@]1(COc2ccc(N3CCN(S(=O)(=O)c4ccc(F)cc4)CC3)cc2)Cn2cc([N+](=O)[O-])nc2O1 | > 8 | 1 (≈ 1.93 µM)
C[C@]1(COc2ccc(-n3cc(COc4ccc(OC(F)(F)F)cc4)nn3)cc2)Cn2cc([N+](=O)[O-])nc2O1 | 0.12 (≈ 0.225 µM) | 0.06 (≈ 0.113 µM)
C[C@]1(COc2ccc(S(=O)(=O)N3CCCCC3)cc2)Cn2cc([N+](=O)[O-])nc2O1 | > 8 | 3.34 (≈ 7.91 µM)
COc1c(N2CCNC(C)C2)c(F)cc2c(=O)c(C(=O)O)cn(C3CC3)c12 (centres undefined) [GATIFLOXACIN] | 0.5 (≈ 1.33 µM) | –
CO[C@H]1/C=C/O[C@@]2(C)Oc3c(C)c(O)c4c(O)c(c(/C=N/N5CCN(C)CC5)c(O)c4c3C2=O)NC(=O)/C(C)=C\C=C\[C@H](C)[C@H](O)[C@@H](C)[C@@H](O)[C@@H](C)[C@H](OC(C)=O)[C@@H]1C [RIFAMPIN] | 128 (≈ 156 µM) | 256 (≈ 311 µM)
